We go through two molecules from EP4268819A1 (priority 2022, dated 2023).

The subject of series [1] is SARS-CoV-2 clinical omicron isolate.
Series [2] has the same test system. In words: microbe, parasite or virus in culture. The note with it: Severe acute respiratory syndrome coronavirus 2, Calu-3.

Read-outs that look alike come from different tables or passages of the source.

In the case of `COc1[nH]c(=O)c(C(=O)[C@@H](C)C[C@H](C)[C@@H](Cl)CCl)c(O)c1OC` [Atpenin A5, atpenin A5], the “Therapeutic range: CC50/IC50 (CTG)” value in series [1] (SARS-CoV-2 omicron in Calu-3 cells, CC50 by CTG) was “CTG: 1.3”. Besides, in series [1] (SARS-CoV-2 omicron in Calu-3 cells, CC50 by IncuCyte), the “Therapeutic range: CC50/IC50 (IncuCyte)” value is on record as “IncuCyte: > 117.6”. In addition, the “Therapeutic range: CC50/IC50 (MTT)” value in series [1] (SARS-CoV-2 omicron in Calu-3 cells, CC50 by MTT) was “MTT: 1.8”.
Take `[H]/N=C(/N)N/C(=N/[H])NCCc1ccccc1` [Phenformin]: in series [1] (human, calu-3 cells), the “Therapeutic range: CC50/IC50 (CTG)” value was “CTG: 1674”, the “Therapeutic range: CC50/IC50 (IncuCyte)” value is given as “IncuCyte: 1111” and the “Therapeutic range: CC50/IC50 (MTT)” value is “MTT: 1123”. In series [2], this molecule yielded an IC50 of 1350 nM.

What is called IC50 is the concentration that gives 50% inhibition. Higher therefore signals weaker potency.
